The record followed here is PubChem BioAssay (NCI).

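Method: 48-hour compound exposure of cells in 96-well plates, five concentrations, linear interpolation of endpoints. GI50 is the concentration that inhibits growth by half. TGI marks complete inhibition of growth.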

Common to all, as to assay: DTP human tumour cell line panel, 48 h
For experiment [1], the system named is OVCAR-8 ovarian.
The subject of experiment [2] is A549 NSCLC.
In experiment [3] the test system is SNB-75 CNS.
Experiment [4] deals with SF-295 CNS.
Experiment [5] has as its system TK-10 renal.
The test system of experiment [6] is NCI-H522 lung.
Experiment [7] concerns HS 578T breast.
In experiment [8] the test system is UO-31 renal.
In experiment [9] the test system is A498 renal.
Experiment [10] relates to UACC-62 melanoma.

As usually defined, the TGI is the concentration at which net growth stops. Regarding `CCOC(=O)c1cccc(N=Nc2ncc(/C=C/C(=O)OC)[nH]2)c1`, the TGI in experiment [1] is 63.6 µM; in [2], over 100 µM; in [3] it was 92.4 µM; in experiment [4], 63.2 µM; in experiment [5], over 100 µM; in experiment [6] it was 47.2 µM. In addition, the TGI in experiment [7] was over 100 µM; in experiment [8], 72 µM; in [9], 67.8 µM; in [10], 63.2 µM.

`O=C1/C(=C/c2ccc([N+](=O)[O-])cc2)Sc2scc(-c3cccc([N+](=O)[O-])c3)[n+]21`: the TGI in experiment [1] is over 54.9 µM; in [2] it was 56.7 µM; in [3] it was 25.6 µM; in experiment [4], 29.3 µM; in [5] it was 17.8 µM; in experiment [6], 2.69 µM. In addition, the concentration for total growth inhibition (TGI) in experiment [7] was determined as 48.1 µM; in experiment [8] it was 22 µM; in experiment [9] it was 7.98 µM; in experiment [10], 29.9 µM.

On to `COc1cc(/C=C2\CC3C4CC[C@H]5C[C@@H](O)CC[C@]5(C)C4CC[C@]3(C)\C2=N\O)cc(OC)c1OC` (stereo not given in full), for which the TGI is over 100 µM in [1]; over 100 µM in [2]; over 100 µM in [3]; 15.4 µM in experiment [4]; over 100 µM in experiment [5]; 94.8 µM in experiment [6]. The TGI in experiment [7] is 75.7 µM; in experiment [8] it was 17.4 µM; in experiment [9] it was 31.1 µM; in experiment [10] it was 35 µM.

For the compound `CC(C)(C)COS(=O)OCC(C)(C)C`, the TGI in [1], in experiment [2], in experiment [3], in experiment [4], in [5] and in experiment [6] was over 100 µM each time. In addition, the TGI in experiment [7], in experiment [8], in experiment [9] and in experiment [10] was over 100 µM each time.

In the case of `CN(CCc1ccccn1)c1ccc2c(c1)Cc1ccccc1-2`, the TGI in experiment [1] is 77.8 µM; in [2] it was over 100 µM; in experiment [3], 45.2 µM; in experiment [4] it was 41.1 µM; in experiment [5], over 100 µM; in [6], 62.1 µM. Moreover, the TGI in experiment [7] is 9.92 µM; in [8], over 100 µM; in experiment [9], 50.6 µM; in [10] it was over 100 µM.

Take `Nc1ccc(Cc2ccc(N)c(C(=O)O)c2)cc1C(=O)O`: the TGI in [1], in experiment [2], in experiment [3], in experiment [4], in experiment [5] and in experiment [6] was over 100 µM in each case. The TGI in experiment [7], in experiment [8], in experiment [9] and in experiment [10] was over 100 µM each time.

One may read the GI50 as the concentration at which growth is held to half of that of the control. In the case of `COc1ccc(-n2nc(C(=O)c3ccccc3)c3nn4c(=O)cc(-c5ccccc5)nc4nc32)cc1`, the GI50 in experiment [1] is 40.1 µM; in [2], 39.2 µM; in [3] it was 37.9 µM; in [4] it was 28.9 µM; in experiment [5], 40.3 µM; in [6], 23.1 µM. The GI50 in [7] is 69.9 µM; in experiment [8], 28.6 µM; in experiment [9], 66.2 µM; in experiment [10], 28.4 µM. The TGI was over 100 µM in experiment [1]; over 100 µM in experiment [2]; over 100 µM in experiment [3]; 85.2 µM in [4]; over 100 µM in experiment [5]; 81.2 µM in experiment [6]. Moreover, the TGI in [7] was over 100 µM; in [8] it was over 100 µM; in experiment [9] it was over 100 µM; in [10] it was 97.6 µM.

Consider `Cc1ccc(S(=O)(=O)Nc2cc(=O)[nH]c3c2CCC3)cc1`, for which the TGI in experiment [1], in [2], in experiment [3], in experiment [4], in experiment [5] and in experiment [6] was over 100 µM throughout. Also, the TGI in experiment [7], in experiment [8], in experiment [9] and in [10] was over 100 µM each time.

Regarding `COc1ccc2c3c([nH]c2c1)[C@H](C=C(C)C)N1C(=O)[C@@H]2CCCN2C(=O)[C@@H]1C3`, the TGI is over 100 µM in experiment [1]; over 100 µM in experiment [2]; 61 µM in experiment [3]; over 100 µM in experiment [4]; over 100 µM in experiment [5]; over 100 µM in experiment [6]. In addition, the concentration for total growth inhibition (TGI) in experiment [7], in experiment [8], in [9] and in experiment [10] was over 100 µM each time.

For `CS(=O)(=O)Nc1ccc(NCc2cnc3ccc4[nH]cccc4c23)cc1`, the TGI in [1] is over 100 µM; in experiment [2], over 100 µM; in experiment [3], 61.3 µM; in experiment [4], over 100 µM; in [5] it was 94.8 µM; in experiment [6], 42.3 µM. Moreover, the TGI worked out at 57 µM in experiment [7], 78.2 µM in experiment [8], 51.8 µM in experiment [9] and 30.7 µM in experiment [10].

As for `CCC1=C(CC2NCCc3cc(OC)c(OC)cc32)CC2c3ccccc3CCN2C1` (stereo not given), the TGI is over 100 µM in [1]; over 100 µM in [2]; 87.9 µM in experiment [3]; 76.3 µM in experiment [4]; over 100 µM in experiment [5]; 29.1 µM in experiment [6]. The TGI in [7] stood at 49.7 µM; in [8] it was 36.3 µM; in experiment [9], 28.5 µM; in [10] it was 28.8 µM.

Consider `COc1cc2cc[n+](C)c(Cc3ccc(Oc4cc(Cc5c6cc(OC)c(OC)cc6cc[n+]5C)ccc4OC)cc3)c2cc1OC`, for which the TGI in experiment [1], in experiment [2], in experiment [3], in experiment [4], in [5] and in experiment [6] was over 100 µM each time. For the same compound, the TGI in experiment [7], in experiment [8], in experiment [9] and in experiment [10] was over 100 µM throughout.

Take `Fc1c(F)c(F)c(CSc2nc3ccccc3[nH]2)c(F)c1F`: the TGI in [1], in experiment [2], in experiment [3], in experiment [4], in experiment [5] and in experiment [6] was over 100 µM throughout. The TGI in experiment [7], in experiment [8], in experiment [9] and in [10] was over 100 µM in each case.
